From the SangsterLogP compilation come the findings set out here.

Structures are written as SMILES.

Usually logP stands for the decadic logarithm of the partition coefficient of the neutral form, usually between octanol and water. Higher therefore signals higher lipophilicity. For `CCn1cnc([N+](=O)[O-])n1`, the logP was -0.23.

Compound `CC(=O)C(C)C` returned a logP of 0.84.

As to `CC(=O)COc1ccccc1`, the logP stood at 1.04.

`COc1ccc([N+](=O)[O-])cn1` registered a logP of 1.55.

The logD is the decadic logarithm of the distribution of all forms, ionised or not, between an organic phase and buffer at a given pH. A higher logD goes with a more lipophilic compound. For `CC(C=CC1=C(C)CCCC1(C)C)=CC=CC(C)=CC(=O)O`, where the note is “pH 1.0”, the logD stood at 6.3.

The compound `CC(C)c1ccc(C(O)C(CO)NC(=O)C(Cl)Cl)cc1` (configuration not stated) came in with a logP of 2.24.

For the compound `CNC(=O)c1ccco1`, the logP worked out at 0.23.

As for `COC(=O)CC(=O)OC`, the logP is -0.05.

Where the note is “pH 10.6”, `C=CCN1CCc2nc(N)sc2CC1` registered a logD of 1.48.

Turning to `O/N=C\c1ccc(F)cc1`, the logP stood at 2.03.

`CN(C)c1cccnc1` yielded a logP of 1.41.

In turn, `O=C(O)Cc1ccc(N2Cc3ccccc3C2=O)cc1` came in with a log partition coefficient (logP) of 2.9.

As for `COC(=O)CCCC(=O)OC`, the logP is 0.62.

For `CCOc1ccc(C(=O)O)cc1OCC`, where the note is “pH 1.0”, the logD was determined as 2.37.

Compound `O=C(O)c1c2ccccc2cc2ccccc12` returned a logD (pH 1.0) of 3.85.

As for `CSCCC(NC(C)=O)C(N)=O` (configuration not stated), for the setting “pH 7.1”, the logD was -0.6.

Compound `COc1ccc(CC#N)cc1OC` yielded a logP of 1.15.

Regarding `Cc1cc([N+](=O)[O-])cc2c1NC(=O)CN=C2c1ccccc1`, the logD (pH 7.4) came to 2.33.

In turn, `CC(=O)OC(C)(C)C` showed a logP of 1.76.

`CC12CC(O)C3C(CCC4(O)CC(O)CC(O)C34CO)C1(O)CCC2C1=CC(=O)OC1` (configuration not stated): the logP is -0.02.

With `NC(=O)c1nc[nH]c1N`, the logD (pH 9.0) was -1.1.

`N#CCC(=O)c1ccccc1` had a lipophilicity (logP) of 0.97.

`CN1CCN(C)CC1`: the logD (pH 13.0) was -0.4.

The compound `C[C@H](NC(=O)N(CCCl)N=O)C(=O)O` showed a logP of 0.78.

Under “pH 1.0”, `O=C(O)/C=C/c1ccc([N+](=O)[O-])cc1` came in with a logD of 2.12.

Turning to `CC(=O)Nc1ncnc2c1ncn2C`, the logP was -0.41.

Compound `CC(C)=NOCCOC(=O)[C@@H](C)Oc1ccc(Oc2cnc3cc(Cl)ccc3n2)cc1` registered a logP of 4.6.

`C=CCSc1ccccc1` came in with a logP of 3.51.

Take `CN(C(=S)c1ccccc1)c1ccccc1`: the logP came to 3.12.

`CNC(=O)c1ccoc1` showed a logP of 0.34.

On to `CC1(C)CNC(=NN=C(C=Cc2ccc(C(F)(F)F)cc2)C=Cc2ccc(C(F)(F)F)cc2)NC1`, for which the logP was found to be 2.31.

`NC(=O)CCOc1ccccc1` came in with a logP of 0.8.

Regarding `CC(=O)N[C@@H](CC(C)C)C(=O)N[C@@H](CCCNC(=N)N)C(=O)N[C@@H](Cc1ccccc1)C(N)=O`, the logP was -0.06.

`Clc1nc(-c2ccccc2)nc2ccccc12` returned a logP of 4.47.

As to `N#Cc1cccc(C#N)c1`, the logP is 0.8.

Compound `C=CCOC(Cn1ccnc1)c1ccc(Cl)cc1Cl` (configuration not stated) registered a logD (pH 9.2) of 3.82.

`CCNC(=O)c1ccoc1` returned a logP of 0.72.

`c1ccc2c(c1)Cc1ccccc1S2` gave a logP of 3.86.

The compound `CC(C)CN(C)CC(C)C` showed a log partition coefficient (logP) of 2.34.

`Cc1[nH]oc(=O)c1/N=N/c1ccccc1Cl` returned a logP of 2.6.

Compound `CCCCn1cnc2c(NC(C)=O)ncnc21` came in with a logP of 0.55.

Where the note is “pH 7.0”, `CCCCN(CC)c1c([N+](=O)[O-])cc(C(F)(F)F)cc1[N+](=O)[O-]` had a logD of 5.29.

As for `O=[N+]([O-])c1ccccc1CO`, the logP was 1.24.

In turn, `CC1(C)COC(Cn2cncn2)(c2ccc(-n3ccnc3)cc2Cl)OC1` displayed a logD (pH 7.0) of 2.26.

`CC(=O)C1CC1` showed a lipophilicity (logP) of 0.49.

With `CC(C)(C)NCCO`, the logD (pH 13.0) was found to be 0.41.

Consider `CS(=O)c1ccc2c(c1)C(c1ccccc1)=NCC(=O)N2` (configuration not stated), for which, under “pH 7.4”, the logD came to 0.8.

For `Ic1ccc(I)cc1`, the logP was 4.11.

The compound `CCN(CC)S(=O)(=O)c1ccc(OC)c(N)c1` came in with a logP of 1.7.

Where the note is “pH 7.4”, `CCc1cccc2cccnc12` came in with a logD of 2.93.

Compound `CNc1nc2c3cccnc3ccc2n1C` had a logD (pH 7.4) of 1.82.

In the case of `CC1=C(/C=C/C(C)=C/C=C/C(C)=C/CO)C(C)(C)CCC1`, the logP came to 5.68.

The compound `CS(=O)(=O)N(c1ccccc1[N+](=O)[O-])S(C)(=O)=O` yielded a logP of 0.81.

For the compound `CC1=C(C(=O)O)N2C(=O)C(NC(=O)C(O)c3ccccc3)C2SC1` (configuration not stated), the logD (pH 3.5) came out at 0.46.

In turn, `S=C(N/N=C/c1ccc[nH]1)Nc1ccccc1` displayed a logP of 3.73.

On to `O=C1C(Cl)C(CCl)CN1c1cccc(C(F)(F)F)c1` (configuration not stated), for which the logP came to 3.36.

As for `O=[N+]([O-])c1ccc(Nc2ccccc2)cc1`, the logP worked out at 3.74.

In turn, `O=[N+]([O-])c1cc(C(F)(F)F)cc([N+](=O)[O-])c1NN=C(C(F)(F)F)C(F)(F)F` had a logD (pH 4.0) of 3.6.

In the case of `CNC=O`, the log partition coefficient (logP) was -0.97.

In turn, `CC(C)(C)NCC(O)COCCCc1ccccc1` (configuration not stated) gave a log partition coefficient (logP) of 2.58.

As to `CC(C)(C)n1ccnc1C=NO`, the logP is 0.85.

As to `c1ccc(N2CCNCC2)cc1`, where the note is “pH 13.0”, the logD was determined as 1.11.

Turning to `CC(=O)c1ccc(N2CCCCC2)cc1`, under “pH 13.0”, the logD worked out at 3.13.

Turning to `C/C=C\C=C\C`, the logP came out at 2.8.

`N#Cc1ccc(C#N)cc1`: the logP is 0.93.

The compound `Nc1nc2cc(Cl)ccc2[nH]1` yielded a logP of 1.88.

As for `N#Cc1cccc(F)c1`, the logP worked out at 1.47.

As for `CCNC(=O)C1C2C=CC(C2)C1C(=O)NCC` (configuration not stated), the logP stood at 0.99.

Consider `CCn1cc(C)c(=O)[nH]c1=O`, for which the logP was -0.15.

For the setting “pH 13.0”, `NCCN1CCCC1` registered a logD of 0.08.

The compound `Cn1cccn1` came in with a logP of 0.23.

As for `CC(C)(C)NC(=O)[C@H]1CC[C@H]2[C@@H]3CC[C@H]4NC(=O)C=C[C@]4(C)[C@H]3CC[C@]12C`, the logP came to 3.03.

The compound `CC1C=CCN1` (configuration not stated) gave a logP of 1.87.

Turning to `CN(C(=O)COc1nc2ccccc2s1)c1ccccc1`, the logP was 3.23.

For the compound `Clc1cc(Cl)nc(-c2ccccc2)n1`, the logP was found to be 4.17.

Consider `CC(C)(C)NCC(O)COCC=Cc1ccccc1` (configuration not stated), for which the lipophilicity (logP) was 2.69.

Compound `CCN(CC)C(=O)COC(=O)[C@@H](C)c1ccc2cc(OC)ccc2c1` gave a logP of 3.32.

Turning to `CC(C)NC(C)(C)C`, for the setting “pH 13.0”, the logD worked out at 1.56.

Regarding `Cc1ccc(Cc2cnc(N)nc2N)c(C)c1N`, the logD (pH 13.0) was determined as 1.12.

On to `CC(C)Cn1c(=O)n(C)c(=O)c2[nH]c(CC(O)N3CCN(C(c4ccccc4)c4ccccc4)CC3)nc21` (configuration not stated), for which the logD (pH 7.4) was determined as 5.21.

Compound `c1ccc(-c2ccncn2)cc1` yielded a logP of 1.92.

The compound `CCCSP(=O)(OCC)SCCC` yielded a logP of 3.59.

Turning to `COC(=O)C(=O)OC`, the logP was -0.17.

On to `c1ccc(-c2cc3ccccc3[nH]2)nc1`, for which the logP was determined as 3.33.

Take `O=C1CC(OC(=O)c2ccccc2)N1` (configuration not stated): the lipophilicity (logP) was determined as 1.37.

Compound `O=C(O)c1cc2ccccc2o1` displayed a pH-dependent lipophilicity (logD) (pH 1.0) of 2.41.

`Cc1c[nH]cn1` showed a logD (pH 9.0) of 0.23.

`CCOC(=S)NCCn1c([N+](=O)[O-])cnc1C`: the logD (pH 7.4) turned out to be 1.5.

`CC(C)C(=O)C(C)C` registered a logP of 1.86.

Compound `Nc1c([N+](=O)[O-])cccc1[N+](=O)[O-]` yielded a logP of 1.79.

Turning to `Cc1ccccc1COC1CC2(C(C)C)CCC1(C)O2` (configuration not stated), the logP turned out to be 3.83.

Turning to `CCOC(=O)C(Cl)(Cl)Cl`, the logP came out at 2.39.

The compound `CCCCNC(=S)N(CCCC)CCCC` registered a log partition coefficient (logP) of 3.68.

`CCc1ccncc1` registered a logP of 1.65.

Regarding `COC(=O)/C=C/C(=O)OC`, the logP came to 0.74.

With `Cc1cc2ccccc2cn1`, the logP is 2.68.

Regarding `CSc1nc2nc(Cl)ccc2[nH]1`, the log partition coefficient (logP) worked out at 2.39.

For the compound `O=S(Cc1ccccc1)Cc1ccccc1`, the logP amounted to 1.99.

`S=C(N/N=C/c1ccco1)Nc1ccccc1`: the logP was determined as 3.13.

For the setting “pH 7.4”, `Cc1ccc(C=Cc2ncc([N+](=O)[O-])n2C)cc1` yielded a logD of 1.64.

Regarding `CNC(=N[N+](=O)[O-])NCCSCc1nc[nH]c1C`, the logP was found to be 0.13.

Compound `N#CC(CCc1ccc(Cl)cc1)(Cn1cncn1)c1ccccc1` (configuration not stated) had a logP of 3.23.

Regarding `CC(C)CC#N`, the pH-dependent lipophilicity (logD) (pH 1.0) turned out to be 1.07.

Regarding `CCCNC`, the logD (pH 13.0) was found to be 0.84.

Compound `NC(=O)OCCC1=C(N2CC2)C(=O)C(Br)=C(N2CC2)C1=O` came in with a logP of 0.68.

For the compound `N#CCC(=O)O`, under “pH 1.0”, the logD was -0.76.

Regarding `N#Cc1cccc(C=O)c1`, the logP was found to be 1.18.

As for `FCC1CO1` (configuration not stated), the logP is -0.16.

In turn, `Nc1ccc2c(c1)C(=O)N(O)C2=O` returned a logP of 0.16.

In turn, `O=C(NC(F)(F)F)c1cccc2cccnc12` yielded a logD (pH 7.4) of 3.24.

As for `CCS(=O)(=O)CC`, the logP is -0.59.

`Cc1nn(C)c(OCC(=O)c2ccccc2)c1C(=O)c1ccc(Cl)cc1Cl` came in with a logP of 3.69.

Compound `CCCCNc1ccc(C(=O)OCCOCCOCCOCCOCCOCCOCCOCCOCCOC)cc1` returned a logP of 2.45.

For the compound `Cn1nnnc1SCC1=C(C(=O)O)N2C(=O)[C@@H](NC(=O)[C@H](O)c3ccccc3)[C@H]2SC1`, the logD (pH 1.0) amounted to 0.25.

Regarding `O=C(CCBr)N1CCN(C(=O)CCBr)CC1`, the logP came to 0.42.

Consider `CCCCCCCCn1cc(C)c(=O)[nH]c1=O`, for which the logP is 3.04.

For the compound `CCCN(CCC)c1c([N+](=O)[O-])cc(S(N)(=O)=O)cc1[N+](=O)[O-]`, the lipophilicity (logP) worked out at 3.73.

`Cc1ccc(N(SC(F)(Cl)Cl)S(=O)(=O)N(C)C)cc1` displayed a logP of 3.95.

Compound `C1=C\C=C/C=C\C=C/1` had a logP of 3.08.

With `C1CCC(Cc2nnn[nH]2)CC1`, the logD (pH 3.5) came out at 1.59.

`CCCC(=O)OC` had a logP of 1.29.

As to `O=C(O)COc1ccc(N2Cc3ccccc3C2=O)cc1`, the lipophilicity (logP) is 3.58.

As to `CCOC(=O)CCN(Cc1ccccc1)SN(C)C(=O)ON=C(C)SC`, the logP is 3.43.

With `O=C(CCn1cnc([N+](=O)[O-])n1)NCCO`, the log partition coefficient (logP) was -1.32.

For `COCC(C)OC` (configuration not stated), the logP was -0.09.

For `c1ccc(CCCc2ccccc2)cc1`, the lipophilicity (logP) was 3.43.

Regarding `Nc1cc([N+](=O)[O-])cc([N+](=O)[O-])c1`, the logP was 1.89.

`CCC(C)Cl` (configuration not stated) had a log partition coefficient (logP) of 2.33.

For `CNC(=S)N(C)C`, the logP is 0.1.

As for `CN(C)c1ccc2c(c1)C(=O)N(S(C)(=O)=O)C2=O`, the logP was 1.65.

Turning to `COc1ccc([N+](=O)[O-])cc1N`, the log partition coefficient (logP) stood at 1.47.

`CCOc1cccc(Cl)n1` had a logP of 2.55.
